System: 855422-203-R-J1-PDC complex spheroid viability
Assay: Anticancer human tumor 855422-203-R-J1-PDC patient-derived bladder carcinoma cell line growth inhibition [POLQ]
Details: for IC50: curve of first compound; for viability, T/C: stronger effect = lower value
Summary of the method: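 Growth inhibition in 3D: complex spheroids (tumor PDC, HUVEC, MSC) treated with POLQ inhibitor combinations; where Cmax unknown, highest tested concentration 10 microM, except SN-38 at 1 microM.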

[1] = second compound 0.0316 µM, first compound 0.0316 µM
[2] = second compound 0.0316 µM, first compound 0.1 µM
[3] = second compound 0.0316 µM, first compound 0.316 µM
[4] = second compound 0.0316 µM, first compound 1 µM
[5] = second compound 0.1 µM, first compound 0.0316 µM
[6] = second compound 0.1 µM, first compound 0.1 µM
[7] = second compound 0.1 µM, first compound 0.316 µM
[8] = second compound 0.1 µM, first compound 1 µM
[9] = second compound 0.316 µM, first compound 0.0316 µM
[10] = second compound 0.316 µM, first compound 0.1 µM
[11] = second compound 0.316 µM, first compound 0.316 µM
[12] = second compound 0.316 µM, first compound 1 µM
[13] = second compound 1 µM, first compound 0.0316 µM
[14] = second compound 1 µM, first compound 0.1 µM
[15] = second compound 1 µM, first compound 0.316 µM
[16] = second compound 1 µM, first compound 1 µM
[17] = second compound 3.16 µM, first compound 0.0316 µM
[18] = second compound 3.16 µM, first compound 0.1 µM
[19] = second compound 3.16 µM, first compound 0.316 µM
[20] = second compound 3.16 µM, first compound 1 µM
[21] = second compound 10 µM, first compound 0.0316 µM
[22] = second compound 10 µM, first compound 0.1 µM
[23] = second compound 10 µM, first compound 0.316 µM
[24] = second compound 10 µM, first compound 1 µM
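Note: spheroids exposed to compounds for seven days before readout.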

CCc1c2c(nc3ccc(O)cc13)-c1cc3c(c(=O)n1C2)COC(=O)[C@]3(O)CC + COC1C(OC(N)=O)C(O)C(Oc2ccc3c(O)c(NC(=O)c4ccc(O)c(CC=C(C)C)c4)c(=O)oc3c2C)OC1(C)C
IC50 (second compound 0.0316 µM): < 3.16 nM | IC50 (second compound 0.1 µM): < 3.16 nM | IC50 (second compound 0.316 µM): < 3.16 nM | IC50 (second compound 1 µM): < 3.16 nM | IC50 (second compound 3.16 µM): < 3.16 nM | IC50 (second compound 10 µM): < 3.16 nM | viability, T/C (second compound 0.0316 µM, first compound 0.00316 µM): 40.8% | viability, T/C (second compound 0.0316 µM, first compound 0.01 µM): 16.8% | viability, T/C [1]: 7.82% | viability, T/C [2]: 5.58% | viability, T/C [3]: 4.71% | viability, T/C [4]: 1.63% | viability, T/C (second compound 0.1 µM, first compound 0.00316 µM): 40.5% | viability, T/C (second compound 0.1 µM, first compound 0.01 µM): 14.3% | viability, T/C [5]: 8.6% | viability, T/C [6]: 6.16% | viability, T/C [7]: 3.09% | viability, T/C [8]: 1.68% | viability, T/C (second compound 0.316 µM, first compound 0.00316 µM): 42.7% | viability, T/C (second compound 0.316 µM, first compound 0.01 µM): 15.7% | viability, T/C [9]: 9.73% | viability, T/C [10]: 5.82% | viability, T/C [11]: 4.86% | viability, T/C [12]: 1.54% | viability, T/C (second compound 1 µM, first compound 0.00316 µM): 33.4% | viability, T/C (second compound 1 µM, first compound 0.01 µM): 14.5% | viability, T/C [13]: 9.49% | viability, T/C [14]: 5.81% | viability, T/C [15]: 3.09% | viability, T/C [16]: 2.46% | viability, T/C (second compound 3.16 µM, first compound 0.00316 µM): 26.4% | viability, T/C (second compound 3.16 µM, first compound 0.01 µM): 11.5% | viability, T/C [17]: 8.08% | viability, T/C [18]: 4.59% | viability, T/C [19]: 2.7% | viability, T/C [20]: 1.71% | viability, T/C (second compound 10 µM, first compound 0.00316 µM): 14.7% | viability, T/C (second compound 10 µM, first compound 0.01 µM): 11.2% | viability, T/C [21]: 7.82% | viability, T/C [22]: 6.39% | viability, T/C [23]: 3.19% | viability, T/C [24]: 1.43%

Nc1ccn(C2OC(CO)C(O)C2(F)F)c(=O)n1 (centres undefined) + COC1C(OC(N)=O)C(O)C(Oc2ccc3c(O)c(NC(=O)c4ccc(O)c(CC=C(C)C)c4)c(=O)oc3c2C)OC1(C)C
IC50 (second compound 0.0316 µM): 43.7 nM | IC50 (second compound 0.1 µM): 48.2 nM | IC50 (second compound 0.316 µM): 65.4 nM | IC50 (second compound 1 µM): 58.8 nM | IC50 (second compound 3.16 µM): 68.1 nM | IC50 (second compound 10 µM): 65.8 nM | viability, T/C [1]: 57.1% | viability, T/C [2]: 31.7% | viability, T/C [3]: 11.5% | viability, T/C [4]: 9.46% | viability, T/C (second compound 0.0316 µM, first compound 3.16 µM): 7.57% | viability, T/C (second compound 0.0316 µM, first compound 10 µM): 6.26% | viability, T/C [5]: 60.2% | viability, T/C [6]: 32.2% | viability, T/C [7]: 10.7% | viability, T/C [8]: 8.44% | viability, T/C (second compound 0.1 µM, first compound 3.16 µM): 7.41% | viability, T/C (second compound 0.1 µM, first compound 10 µM): 6.76% | viability, T/C [9]: 78.4% | viability, T/C [10]: 33.5% | viability, T/C [11]: 11.3% | viability, T/C [12]: 8.38% | viability, T/C (second compound 0.316 µM, first compound 3.16 µM): 8.35% | viability, T/C (second compound 0.316 µM, first compound 10 µM): 5.06% | viability, T/C [13]: 72.4% | viability, T/C [14]: 31% | viability, T/C [15]: 12.2% | viability, T/C [16]: 9.87% | viability, T/C (second compound 1 µM, first compound 3.16 µM): 6.93% | viability, T/C (second compound 1 µM, first compound 10 µM): 6.4% | viability, T/C [17]: 75.4% | viability, T/C [18]: 37.3% | viability, T/C [19]: 9.1% | viability, T/C [20]: 9.44% | viability, T/C (second compound 3.16 µM, first compound 3.16 µM): 10.2% | viability, T/C (second compound 3.16 µM, first compound 10 µM): 6.39% | viability, T/C [21]: 72.8% | viability, T/C [22]: 37% | viability, T/C [23]: 11.5% | viability, T/C [24]: 11.4% | viability, T/C (second compound 10 µM, first compound 3.16 µM): 7.42% | viability, T/C (second compound 10 µM, first compound 10 µM): 5.66%

— PubChem BioAssay AID1963838 (Molecular Pharmacology Branch, DTP, NCI, 2024)
